Where two headings read alike, the source gives them in different places.
What was measured:
[1] = test system: SARS-CoV-2 B.1.1.7 lineage; assay: microbe, parasite or virus in culture; type: cell-based; conditions: Severe acute respiratory syndrome coronavirus 2, Table C, SARS-CoV-2 B.1.1.7 in A549-dual_ACE2_TMPRSS2 cells, read-out: A549-dual_ACE2_TMPRSS2 (EC50)
[2] = Cytotoxicity in HeLa cells without addition of OC43 virus (in parallel); conditions: human, HeLa cells, without OC43 virus
SARS-Cov-2 3CLpro = SARS-Cov-2 3CLpro (Severe acute respiratory syndrome coronavirus 2, UniProt P0DTD1); assay: biochemical; conditions: Table A, class symbols, read-out: SARS-Cov-2 (IC50)
in vitro = conditions: human
[3] = test system: human beta-coronavirus OC43; assay: OC43 Coronavirus Assay in HeLa cells (antiviral, cytopathic effect, cell-titer-glo); type: cell-based; conditions: Betacoronavirus 1, OC43, HeLa, Table B, OC43 coronavirus in HeLa cells, read-out: EC50

SMILES | EC50 ([1]; class symbols) [nM] | CC50 at 6 days [2] [nM] | IC50 (SARS-Cov-2 3CLpro) [nM] | CC50 (in vitro) [nM] | EC50 ([3]; class symbols) [nM] | EC50 ([1]; cells given as a bound) [nM] | EC50 ([3]; cells given as a bound) [nM]
CN(C(=O)[C@H](COC(C)(C)C)NC(=O)C(F)(F)F)[C@@H](CC1CC1)C(=O)N1C[C@@]2(C[C@H]1C#N)Oc1cc(F)cc(F)c1NC2=O [Compound 158] | < 100 | > 10000 | < 20 | > 1000 | < 100 |  | 
CN(C(=O)c1cc2c(F)cc(F)c(F)c2[nH]1)[C@@H](CC1CC1)C(=O)N1C[C@@]2(C[C@H]1C#N)Oc1ccccc1CNC2=O [Compound 140] | < 100 | > 10000 | < 20 | > 1000 | < 100 |  | 
CN(C(=O)[C@H](CC(C)(C)C)NC(=O)C(F)(F)F)[C@@H](CC1CC1)C(=O)N1C[C@@]2(C[C@H]1C#N)Oc1cccnc1NC2=O [Compound 188] | < 100 | > 10000 | < 20 | > 1000 | < 100 |  | 
CN(C(=O)[C@H](CC1CC1)NC(=O)C(F)(F)F)[C@@H](CC1CC1)C(=O)N1C[C@]2(C[C@H]1C#N)C(=O)NCc1ccccc12 (single isomer, unassigned) [Compound 122] | < 100 | > 10000 | < 20 | > 1000 | < 100 |  | 
C[C@H](NC(=O)C(F)(F)F)C(=O)N(C)[C@@H](CC1CC1)C(=O)N1C[C@@]2(C[C@H]1C#N)Oc1c(cccc1C1CC1)NC2=O [Compound 99] | < 100 | > 10000 | < 20 | > 1000 | 100 to 1000 |  | 
CC(C)C[C@@H](C(=O)N1C[C@]2(C[C@H]1C#N)C(=O)Nc1c3ccccc3nn12)N(C)C(=O)[C@H](C)NC(=O)C(F)(F)F [Example 27, (2S)—N-[(2S)-1-[(3R,5'S)-5′-cyano-2-oxo-1H-spiro[imidazo[1,2-b]indazole-3,3′-pyrrolidin]-1′-yl]-4-methyl-1-oxopentan-2-yl]-N-methyl-2-(2,2,2-trifluoroacetamido)propanamide] |  | > 10000 | 20 to 200 | > 1000 | 1000 to 10000 | > 1000 | 
C[C@H](NC(=O)C(F)(F)C(F)(F)F)C(=O)N(C)[C@@H](CC1CC1)C(=O)N1C[C@@]2(C[C@H]1C#N)Oc1cccnc1NC2=O [Compound 170] | < 100 | > 10000 | < 20 | > 1000 | < 100 |  | 
C[C@H](NC(=O)C(F)(F)Cl)C(=O)N(C)[C@@H](CC1CC1)C(=O)N1C[C@@]2(CC1C#N)Oc1cccnc1NC2=O (stereo partly shown) [Compound 174] | < 100 | > 10000 | < 20 | > 1000 | < 100 |  | 
COc1ccc(Cl)c2[nH]c(C(=O)N(C)[C@@H](CC3CC3)C(=O)N3C[C@@]4(C[C@H]3C#N)Oc3cc(F)cc(F)c3NC4=O)cc12 [Compound 135] | 100 to 1000 | > 10000 | < 20 | > 1000 | < 100 |  | 
CN(C(=O)[C@H](CC1CC1)NC(=O)C(F)(F)F)[C@@H](CC1CC1)C(=O)N1C[C@]2(C[C@H]1C#N)C(=O)Nc1nccn12 [Example 31, (2S)—N-[(2S)-1-[(3R,5'S)-5′-cyano-2-oxo-1H-spiro[[1,3]diazolo[1,2-a]imidazole-3,3′-pyrrolidin]-1′-yl]-3-cyclopropyl-1-oxopropan-2-yl]-3-cyclopropyl-N-methyl-2-(2,2,2-trifluoroacetamido)propanamide] |  | > 10000 | 20 to 200 | > 1000 |  | > 1000 | > 10000
C[C@H](NC(=O)C1(F)CC1)C(=O)N(C)[C@@H](CC1CC1)C(=O)N1C[C@@]2(C[C@H]1C#N)Oc1cccnc1NC2=O [Compound 169] | 100 to 1000 | > 10000 | < 20 | > 1000 | < 100 |  | 
CC(C)C[C@@H](C(=O)N1C[C@]2(CCNC2=O)C[C@H]1C#N)N(C)C(=O)[C@H](C)NC(=O)C(F)(F)F [Compound 8, (S)—N—((S)-1-((3S,5S)-3-cyano-6-oxo-2,7-diazaspiro[4.4]nonan-2-yl)-4-methyl-1-oxopentan-2-yl)-N-methyl-2-(2,2,2-trifluoroacetamido)propanamide] | 1000 to 10000 | > 10000 | 20 to 200 | > 1000 | 1000 to 10000 |  | 
CC1=N[C@@]2(C[C@@H](C#N)N(C(=O)[C@H](CC(C)C)N(C)C(=O)[C@H](C)NC(=O)C(F)(F)F)C2)C(=O)N1 [Compound 18] |  | > 10000 | 20 to 200 | > 1000 | 1000 to 10000 | > 1000 | 
CN(C(=O)[C@H](CC(F)F)NC(=O)C(F)(F)F)[C@@H](CC1CC1)C(=O)N1C[C@@]2(C[C@H]1C#N)Oc1cc(F)cc(F)c1NC2=O [Compound 86] | < 100 | > 10000 | < 20 | > 1000 | 100 to 1000 |  | 
CN(C(=O)[C@H](CC1CC1)NC(=O)C(F)(F)F)[C@@H](CC1CC1)C(=O)N1C[C@@]2(CC1C#N)Oc1c(C#N)cccc1NC2=O (stereo partly shown) [Compound 124] | 100 to 1000 | > 10000 | < 20 | > 1000 | < 100 |  | 
COC(=O)N[C@@H](C)C(=O)N(C)[C@@H](CC1CC1)C(=O)N1C[C@@]2(C[C@H]1C#N)Oc1cccnc1NC2=O [Compound 213] | 100 to 1000 | > 10000 | < 20 | > 1000 | < 100 |  | 
CN(C(=O)[C@H](CC1CC1)NC(=O)C(F)(F)F)[C@@H](CC1CC1)C(=O)N1C[C@@]2(C[C@H]1C#N)Oc1cc(F)cnc1NC2=O [Compound 67] | 100 to 1000 | > 10000 | < 20 | > 1000 | < 100 |  | 
CN(C(=O)[C@H](CC1CC1)NC(=O)C(F)(F)F)[C@@H](CC1CC1)C(=O)N1C[C@@]2(C[C@H]1C#N)Oc1cc(C(=O)N3CCOCC3)ccc1NC2=O [Compound 143] | 100 to 1000 | > 10000 | < 20 | > 1000 | < 100 |  | 
CC(C)C[C@@H](C(=O)N1C[C@@]2(C[C@H]1C#N)CC(C)(C)NC2=O)N(C)C(=O)[C@H](C)NC(=O)C(F)(F)F [Compound 22] |  | > 10000 | 20 to 200 | > 1000 | 1000 to 10000 | > 1000 | 
CC(C)C[C@@H](C(=O)N1C[C@]2(CC(c3ccccc3)NC2=O)C[C@H]1C#N)N(C)C(=O)[C@H](C)NC(=O)C(F)(F)F (stereo partly shown) [Compound 24] | 100 to 1000 | > 10000 | < 20 | > 1000 | 1000 to 10000 |  | 
CC(C)CC(C(=O)N1C[C@]2(C[C@H]1C#N)C(=O)Nc1c3c(nn12)CCCC3)N(C)C(=O)[C@H](C)NC(=O)C(F)(F)F (stereo in doubt) [Example 28, (2S)—N-[(2S)-1-[(3R,5'S)-5′-cyano-2-oxo-6,7,8,9-tetrahydro-1H-spiro[imidazo[1,2-b]indazole-3,3′-pyrrolidin]-1′-yl]-4-methyl-1-oxopentan-2-yl]-N-methyl-2-(2,2,2-trifluoroacetamido)propanamide] |  | > 10000 | < 20 | > 1000 | < 100 | > 1000 | 
CC(C)C[C@@H](C(=O)N1C[C@@]2(C[C@H]1C#N)Oc1cc(F)cc(F)c1NC2=O)N(C)C(=O)[C@H](CC(C)(C)F)NC(=O)C(F)(F)F [Compound 64] | 100 to 1000 | > 10000 | < 20 | > 1000 | < 100 |  | 
CN(C(=O)[C@@H](NC(=O)C(F)(F)F)C(C)(C)C)[C@@H](CC1CC1)C(=O)N1C[C@@]2(C[C@H]1C#N)Oc1cc(F)cc(F)c1NC2=O [Compound 53] | 100 to 1000 | > 10000 | < 20 | > 1000 | 100 to 1000 |  | 
CN(C(=O)[C@H](CC1CC1)NC(=O)C(F)(F)F)[C@@H](CC1CC1)C(=O)N1C[C@@]2(C[C@H]1C#N)Oc1c(cccc1-c1ccccc1)NC2=O [Compound 125, (S)—N—((S)-1-((2R,5'S)-5′-cyano-3-oxo-8-phenyl-3,4-dihydrospiro[benzo[b][1,4]oxazine-2,3′-pyrrolidin]-1′-yl)-3-cyclopropyl-1-oxopropan-2-yl)-3-cyclopropyl-N-methyl-2-(2,2,2-trifluoroacetamido)propanamide] | < 100 | > 10000 | < 20 | > 1000 | < 100 |  | 
CN(C(=O)[C@H](CC1CC1)NC(=O)C(F)(F)F)C(CC1CC1)C(=O)N1C[C@]2(Cc3ccccc3NC2=O)C[C@H]1C#N (stereo in doubt) [Example 33, (S)—N—((S)-1-((3S,5S)-5-cyano-2′-oxo-1′,4′-dihydro-2′H-spiro[pyrrolidine-3,3′-quinolin]-1-yl)-3-cyclopropyl-1-oxopropan-2-yl)-3-cyclopropyl-N-methyl-2-(2,2,2-trifluoroacetamido)propanamide] | < 100 | > 10000 | < 20 | > 1000 | 100 to 1000 |  | 
C[C@H](c1ccccc1)[C@H](NC(=O)C(F)(F)F)C(=O)N(C)[C@@H](CC1CC1)C(=O)N1C[C@@]2(C[C@H]1C#N)Oc1cccnc1NC2=O [Compound 193] | 100 to 1000 | > 10000 | 20 to 200 | > 1000 | 100 to 1000 |  | 

Reference: US20240199647A1, “ANTI-VIRAL COMPOUNDS” (Aligos Therapeutics, Inc., priority 2022, published 2024)
